{"source": "patent US12338263B2", "about": "“Antibacterial aminoglycoside derivatives” (priority 2019, dated 2025)", "key": {"HK-2 cells": {"tested_on": "HK-2 cells", "experiment": "Toxicity test on HK-2 cells (Alma Blue)", "format": "cell-based", "method": "(§1) On the day of the experiment, when the HK-2 cells in the culture flask reached 80%-90% confluent, the culture medium was discarded, the cells were washed twice with Dulbecco's phosphate buffered saline (DPBS) and digested for 1 to 2 minutes with 3 mL trypsin (T150 cell culture flask), and immediately 9 ml complete medium (RPMI1640+10% FBS) were added to terminate the digestion. After termination, single cells suspension were formed by pipetting gently, which were centrifuged at 1000 […] for 5 minutes. The supernatant was discarded, and fresh complete medium were added, and the cells were pipetted evenly. The actual cell density was measured according to the cell counter and the cell suspension was adjusted to 2.5×10^5 cells/mL. 80 μL of cell suspension was drawn by a row pipettor and added into a 96-well black bottom plate (2×10^4 cell/well), and then incubated in a carbon dioxide incubator for 4.5 hours, which was defined as a cell plate.\n(§2) • a. The compound mother liquor was prepared according to the following table, with complete medium as the solvent;\n(§3) • b. 50 microliters of complete medium was added into columns 3-11 in the 96-v well plate; • c. 75 microliters of test compound (50 mg/mL) and positive control were added to the second column of the 96-v well plate; • d. 25 microliters of compound was drawn from the second column and added into the third column, blown and sucked a few times by a row pipettor, then 25 microliters of liquid was drawn from the third column and added to the fourth column, and subsequently subjected to a 3-fold series dilution until the 10th column. From column 2 to column 11, the compound concentration was 50, 16.67, 5.56, 1.85, 0.62, 0.21, 0.07, 0.02, 0.008, 0 mg/mL; • e. 20 μL compound solutions of various concentrations prepared were transferred by a row pipettor to the corresponding wells of the cell plate, which was defined as a testing plate. Culture of the Testing Plate:\n(§4) All the plates were incubated in an incubator at 37° C., 5% CO2 for 43 hours.\n(§5) After incubation, 10 microliters of Alma Blue was added to the testing plate. The testing plate was immediately incubated in an incubator at 37° C., 5% CO2 for 3 hours. Then the fluorescence value of each well of the testing plate was read by a microplate reader (wavelength Ex 540 nm/Em 585 nm). Then prism software was used to simulate the curve to calculate CC50 value."}, "[1]": {"experiment": "Toxicity test on HK-2 cells (Alma Blue)", "format": "cell-based", "conditions": "human, 43 hours incubation plus 3 hours Alma Blue, read-out: CC50 of HK-2 cell", "method": "as §1, §2, §3, §4, §5"}, "[2]": {"tested_on": "auditory function in guinea pigs", "experiment": "Auditory safety: compound action potential (CAP) in guinea pigs", "format": "in vivo", "conditions": "guinea pig, in vivo, sc, 100 mg/kg", "method": "Healthy adult guinea pigs (150-250 g) were employed as the research objects, and were randomly divided into saline control group, gentamicin group, compound Plazomicin group and Compound 1 group, with 8 animals in each group. Subcutaneous administration is used, and the following assays were carried out during and after the administration for 14 consecutive days: • 1. To analyze the effects of different drugs on the auditory function of guinea pigs, the compound action potential (CAP) of animals was recorded on the 14th day (29th day, i.e., 4 weeks) after administration. The results obtained were analyzed and the changes of the threshold shift, amplitude, latency and other indicators among different treatment groups were compared. • 2. After the different groups of animals were processed and the auditory function data thereof were collected, the cochlea of the animals was taken out for fixation and staining. Surface preparation of basilar membrane of the cochlea on one side was performed to count the loss of hair cells so as to make a cochlea map, and the cochlea on the other side was decalcified and frozen sectioned. The density of spiral ganglion neurons was counted and compared among groups. Research Results: 1. Administration Method and Treatment\nGentamicin from Dalian Meilun Biotechnology Co., Ltd., and Plazomicin and Compound 1 from WuXi AppTec (WuHan) Co., Ltd. are used, the solution of which were prepared just before use each time by using saline for dissolution to the concentration of 50 mg/mL, and the injection dose was 100 mg/kg body weight. Method: subcutaneous injection, and confirmation of no liquid leakage after each injection.\nThe compound action potential (CAP) was tested and recorded when clicks and different frequencies of pure tones (1 KHz-32 kHz) were applied to each group of animals, and variations in amplitude and latency were mainly compared when clicks and medium and high frequency pure tones (16, 32 kHz) were applied. The magnitude of amplitude reflects the responsiveness of hair cells and auditory nerves. The larger the amplitude and the greater the slope of the I/O curve were, the better the responsiveness and the better the function were. In addition, the cochlea from apical turn to basal turn was responsive to sounds from low-frequency to high-frequency respectively, which is the frequency correspondence of the cochlear basilar membrane. The functional changes to different frequencies correspond to the different structural and functional changes of the cochlea fromapical turn to basal turn. The length of latency was also related to the function of the hair cells and auditory nerve response. Generally speaking, increasing of the threshold value when the cochlea was injured would inevitably lead to the extension of latency. […] In other words, the extension of latency reflected the decrease of response function. The previous ototoxicity of aminoglycoside antibiotics was mainly concentrated in the high-frequency area. In this study, the gentamicin group was consistent with previous results, as summarized below."}, "[3]": {"experiment": "Study on pharmacokinetics in mice", "format": "in vivo, CD-1 mice", "conditions": "mouse, plasma, CD-1 male mice, 1 mg/kg single intravenous injection", "method": "CD-1 male mice aged 7 to 10 weeks were selected and treated by intravenous administration at the dose of 1 mg/kg. The mice were fasted for at least 12 hours before the administration, and resumed feeding 4 hours after the administration. The mice were free to drink during the entire experiment.\nOn the day of the experiment, the animals in the intravenous group were administered with corresponding compound by a single injection via tail vein with an administration volume of 5 mL/kg. The animals were weighed before the administration, and the administration volume was calculated based on the body weight. The sample collection time was: 0.083, 0.25, 0.5, 1, 2, 4, 8, and 24 h. Approximately 30 μL whole blood was collected through the saphenous vein at each time point to prepare plasma for high performance liquid chromatography-tandem mass spectrometry (LC-MS/MS) to determine the concentration.\nAll animals were subjected to euthanasia under CO2 anesthesia after the PK samples at the last time point were collected. The non-compartmental model of the pharmacokinetic software WinNonlin™ Version 6.3 (Pharsight, Mountain View, CA) was used to process the data of plasma concentration, and the linear log-trapezoidal method was used to calculate the pharmacokinetic parameters."}}, "data": [{"compound": "CN[C@@H]1[C@@H](O)[C@@H](O[C@@H]2[C@@H](O)[C@H](O[C@H]3OC(CNCCOCCONC(=N)N)=CC[C@H]3N)[C@@H](N)C[C@H]2NC(=O)[C@@H](O)CCN)OC[C@]1(C)O", "note": "[Compound 1]", "values": [{"measurement": "toxicity to HK-2 cells compared with Netilmicin and Amikacin", "setting": "HK-2 cells", "value": "significantly lower than that of Netilmicin and Amikacin"}, {"measurement": "Maximum inhibition rate", "setting": "HK-2 cells; 43 hours incubation plus 3 hours Alma Blue", "value": 21.96, "unit": "%"}, {"measurement": "toxicity to HK-2 cells compared with Plazomicin", "setting": "HK-2 cells; toxicity regression curve and software prediction (FIG. 8-11)", "value": "lower than Plazomicin"}, {"measurement": "CC50 at 43 h", "setting": "[1]", "value": "> 10000", "unit": "µg/mL"}, {"measurement": "CAP amplitude under click", "setting": "[2]", "value": "consistent with the Control group"}, {"measurement": "hearing damage (CAP amplitude) at 16 kHz", "setting": "[2]", "value": "no different from the Control group"}, {"measurement": "hearing damage to experimental animals (CAP amplitude, overall)", "setting": "[2]", "value": "significantly lower than that of Gentamicin and Plazomicin"}, {"measurement": "CAP amplitude at 16 kHz", "setting": "[2]; 29 day", "value": "381.646±20.895", "unit": "uv"}, {"measurement": "CAP amplitude at 32 kHz", "setting": "[2]; 29 day", "value": "79.420±7.000", "unit": "uv"}, {"measurement": "hearing damage (CAP amplitude) at 32 kHz", "setting": "[2]; 29 day", "value": 34.7, "unit": "%"}, {"measurement": "reduction of hearing damage at 32 kHz compared to Gentamicin", "setting": "[2]; 29 day", "value": 39.6, "unit": "%"}, {"measurement": "reduction of hearing damage at 32 kHz compared to Plazomicin", "setting": "[2]; 29 day", "value": 13.5, "unit": "%"}, {"measurement": "AUC", "setting": "[3]; read-out: Area Under the Curve AUC", "value": 1.92, "unit": "µM·h"}, {"measurement": "clearance", "setting": "[3]; read-out: Clearance Rate Cl", "value": 15.1, "unit": "mL/min/kg"}, {"measurement": "half-life", "setting": "[3]; read-out: Half-Life T1/2 (converted)", "value": 23.8, "unit": "min"}, {"measurement": "Cmax", "setting": "[3]; read-out: Maximum Concentration Cmax", "value": 7.09, "unit": "µM"}, {"measurement": "Vd", "setting": "[3]; read-out: Volume of Distribution Vd", "value": 0.369, "unit": "L/kg"}]}]}
